Test results published in publication PMC12040169 (PLOS Biology, 2025).

Assay: in vitro
Details: human, hela cells, % viability

| SMILES | viability at 28.5 h, 10 µM | viability at 28.5 h, 10 µM (bulk resorufin, single well) |
| --- | --- | --- |
| O=C(Nc1ccc2nc(CN3CCOCC3)[nH]c2c1)C1CCCCC1 [CBK305728] | 80.5% |  |
| COC(=O)C#CCNc1cc(Cl)ccc1Cl [CBK025852] | 57.6% |  |
| COc1cc(CN2CCN(Cc3ccccc3F)CC2)cc(OC)c1O [CBK264219] | 95.9% |  |
| CC(C)(C)Nc1cc(NCCc2ccccc2)nc(N)n1 [CBK012708] | 86.8% |  |
| O=C(O)COc1ccc(S(=O)(=O)N2CCCc3ccccc32)cc1 [CBK269935] | 110% |  |
| COc1ccc(-c2cc(C(=O)NCC(O)CO)cnc2-c2ccc(Cl)cc2)cn1 (stereo not shown) [CBK036645] | 94% |  |
| COC(=O)c1c(NC(=S)NCc2cccnc2)sc(C)c1C [CBK267029] | 89.2% |  |
| O=C1N=C(NC2CCCCCC2)SC1CC(=O)N1CCOC12CCCCC2 (stereo not shown) [CBK067355] | 94% |  |
| CC1CCCC(C)N1C(=O)CN1C2CCC1CC(O)(c1ccco1)C2 (stereo not shown) [CBK284043] | 85.4% |  |
| CCNC(=O)N1CCC(Oc2cc(C)ccc2F)(C(=O)O)CC1 [CBK307147] | 87.9% |  |
| O=C(O)c1oc2ccccc2c1CSc1ccccn1 [CBK286981] | 89.5% |  |
| O=C(CSc1cnn[nH]1)Nc1ccc(F)cc1 [CBK270024] | 89.6% |  |
| COCc1cn(C[C@H]2CC3CCN2C[C@@H]3C(=O)NC(C)C)nn1 (stereo partly shown) [CBK288733] | 89.2% |  |
| COc1ccc(-c2cnc(NS(C)(=O)=O)c(C(=O)Nc3cc(C)nn3C)c2)cc1 [CBK076528] | 88.2% |  |
| COC(=O)c1ccccc1S(=O)(=O)Nc1nnn[nH]1 [CBK021321] | 97.8% |  |
| O=S(=O)(Cc1ccccc1)Nc1cccc2[nH]ccc12 [CBK159490] | 76.6% |  |
| COc1cc(C(=O)N2CCC3(CC2)CC(=O)c2cc(-c4cccnc4)ccc2O3)cc(OC)c1C [CBK169606] | 112% |  |
| FC(F)(F)c1ccc(SCc2ccc(Cl)c(Cl)c2)nc1 [CBK103713] | 95.3% |  |
| Cc1ccc(/C=N/NC(=O)CN(c2ccccc2)S(=O)(=O)c2ccccc2)c(C)c1C [CBK262098] | 89.6% |  |
| CC(=O)N(C)c1nc(-c2ccccc2)ccc1C(=O)NCc1ccco1 [CBK106334] | 99.3% |  |
| Cc1ccc(S(=O)(=O)N2CCC3(CC2)OCCO3)cc1Cl [CBK043731] | 97.1% |  |
| Cc1cc(C)n(CCNCc2cc(-c3ccccc3)c[nH]c2=O)n1 [CBK284770] | 101% |  |

| SMILES | viability at 28.5 h, 10 µM | viability at 28.5 h, 10 µM (bulk resorufin, single well) |
| --- | --- | --- |
| CCOC(=O)C1(C2CCCCC2)CCN(C(=O)CC2NC(=O)NC2=O)CC1 (stereo not shown) [CBK136938] | 100% |  |
| Cn1ccnc1C(NC(=O)Cc1ccc(O)cc1)c1ccccc1 (stereo not shown) [CBK283723] | 87.9% |  |
| C[C@@H]1[C@H](c2ccccc2)OC(=O)N1C1CCN(S(=O)(=O)c2cccs2)CC1 [CBK043302] | 93.9% |  |
| COc1ccc(C)cc1NC(=O)CN(c1ccccc1)S(=O)(=O)c1ccc(F)cc1 [CBK268223] | 99.1% |  |
| COCC(=O)Nc1ccc(Cl)c(NC(=O)NCCN2CCCC2=O)c1 [CBK306663] | 87.9% |  |
| COc1ccc([C@@]23CCN(C(=O)Nc4ccc(F)c(F)c4F)C[C@@H]2CN(C)C3)cc1OC [CBK074305T] | 106% |  |
| Cc1cc(CC(=O)N2CCC(Cn3cncn3)(C3CCCCC3)CC2)on1 [CBK136795] | 88.8% |  |
| Cc1nc2c(c(=O)[nH]1)CN(CC1CCCCC1)CC2 [CBK283947] | 86.7% |  |
| Cc1ccnc(Nc2nc3ccccc3o2)n1 [CBK022772] | 87.5% |  |
| CC(C)c1ccc(CN2CCC3(CC2)CN(CCO)c2ccccc23)cc1 [CBK122708] | 93.4% |  |
| COc1cc(/C=c2\sc3nc(-c4ccccc4OC(C)=O)nn3c2=O)ccc1OCc1ccccc1 [CBK264575] | 99.2% |  |
| O=C(NCCNc1ccc(Cl)cc1[N+](=O)[O-])c1c(F)cccc1F [CBK269643] | 97.6% |  |
| COc1ccc(N2C(=O)NC(=O)/C(=C/c3cn(CC(=O)Nc4ccccc4)c4ccccc34)C2=O)cc1 [CBK263547] |  | 110% |
| O=C(N/N=C/c1ccccc1O)c1cccc(C(=O)N/N=C/c2ccccc2O)n1 [CBK261459] | 111% |  |
| CCC(C)NC(=O)CSc1nnc(-c2cccs2)n1CC (stereo not shown) [CBK296960] | 86.3% |  |
| O=C(CCN1CCCCC1)NCC1OCCc2ccccc21 (stereo not shown) [CBK013619] | 97% |  |
| Cc1nc(CN2CCN(C(=O)NCCc3cnn(C)c3)CC2)cs1 [CBK305614] | 81.3% |  |
| COc1cc(CN2CCNCC2)c2ccn(S(=O)(=O)c3ccccc3Cl)c2c1 [CBK144483T] | 91.9% |  |
| Cc1nc(S)[nH]c(=O)c1Cc1ccc(F)cc1 [CBK288456] | 107% |  |
| CCOC(=O)C1CCN(CC(=O)Nc2ccc(S(N)(=O)=O)cc2)CC1 [CBK266118] | 94% |  |
| O=C(O)c1nccnc1C(=O)NCCc1c[nH]c2ccc(Cl)cc12 [CBK286630] | 93.8% |  |
| O=C(Nc1ccc(F)cc1)c1[nH]c2ccccc2c1NS(=O)(=O)c1cc(Cl)sc1Cl [CBK050094] | 95% |  |

| SMILES | viability at 28.5 h, 10 µM | viability at 28.5 h, 10 µM (bulk resorufin, single well) |
| --- | --- | --- |
| OC1(c2ccc(F)cc2)CC2CCC(C1)N2CC1=CCCOC1 (stereo not shown) [CBK282942] | 106% |  |
| O=C(NCCOc1ccccc1)c1nccnc1-c1ccc(COc2ccc3c(c2)CCCC3)cc1 [CBK050852] | 91.2% |  |
| COC(=O)c1ccccc1NC(=O)CNS(=O)(=O)c1c(C)cc(C)cc1C [CBK265974] | 104% |  |
| CCOc1ccc(NC(=O)c2c[nH]c(=O)n(-c3ccc(F)cc3)c2=O)cc1 [CBK287553] | 107% |  |
| C=CCOc1ccc2ccccc2c1CNc1nn[nH]n1 [CBK267619] | 92.8% |  |
| COC(=O)C(C)CN1CC2CCC(CC2)C1 (stereo not shown) [CBK022785C] | 106% |  |
| Cc1ccccc1CCNC(=O)c1cccn(CC(=O)N(C)C2CCCCC2)c1=O [CBK286028] | 122% |  |
| CC(Oc1ccccc1)C(=O)N1CCN(CCO)CC1 (stereo not shown) [CBK267428] | 98.6% |  |
| O=C(O)CCc1ccc(-c2cccs2)n1CCOc1ccccc1Cl [CBK267885] | 89% |  |
| CC(C)CCn1c(=S)[nH]c2c(oc3ccccc32)c1=O [CBK288504] | 100% |  |
| CC1(C)CC(=O)C2=C(C1)Nc1nn(-c3ccccc3)c(O)c1C2c1cccs1 (stereo not shown) [CBK266333] | 94% |  |
| CS(=O)(=O)c1ccc(Cn2ccnc(N3CCC(Sc4ccccc4)CC3)c2=O)cc1 [CBK144444] | 84.2% |  |
| c1ccc(CCN2CCN(c3nccnc3OCC3COc4ccccc4O3)CC2)cc1 (stereo not shown) [CBK082794T] | 99.4% |  |
| O=C(c1nccc2ccccc12)N1CCN(Cc2ccccc2)CC1 [CBK200176] | 98% |  |
| COc1cc(Nc2cc(-c3cccc(N)c3)nc3ccnn23)cc(OC)c1OC [CBK037236] | 105% |  |
| COc1ccc(Cl)cc1CN(C)C(=O)c1cc(C(C)C)n2ncnc2n1 [CBK307331] | 84.7% |  |
| CN1CCN(C(c2cccs2)c2nnnn2C(C)(C)C)CC1 (stereo not shown) [CBK141702] | 91.9% |  |
| COCCn1c(CN2CCOCC2)nc2c1c(=O)[nH]c(=O)n2C [CBK269890] | 100% |  |
| O=S(=O)(NCCSc1nnnn1-c1ccccc1)c1cccs1 [CBK268013] | 112% |  |
| COc1cc(/C=C/C(=O)O)cc(S(=O)(=O)N2CCc3ccccc3C2)c1OC [CBK264406] | 96.8% |  |
| Cc1ccc(CSCC(=O)NCCN2CCOCC2)cc1 [CBK269327] | 90.4% |  |
| CCOC(=O)Cn1nc(CC)c(Cc2c(Cl)cccc2Cl)c1C [CBK113222] | 122% |  |

| SMILES | viability at 28.5 h, 10 µM | viability at 28.5 h, 10 µM (bulk resorufin, single well) |
| --- | --- | --- |
| NC(=O)C(=O)c1c(-c2ccccc2)cc2ccccn12 [CBK288466] | 100% |  |
| COC(=O)c1sccc1NS(=O)(=O)c1ccc2ccccc2c1 [CBK004500] | 103% |  |
| O=C(/C=C/c1ccccc1)NC(=S)Nc1ccc2oc(-c3ccncc3)nc2c1 [CBK263687] | 93.8% |  |
| CCOc1ccc(-c2nc(CSc3n[nH]c(=O)n3CCc3ccccc3)cs2)cc1 [CBK296735] | 94.7% |  |
| CN1CCC(N(C)Cc2ccccc2[N+](=O)[O-])CC1 [CBK261565] | 93.8% |  |
| CCC(NC(=O)Nc1cc(N2CCOCC2)ccc1Cl)c1cnn(C)c1 (stereo not shown) [CBK306844] | 114% |  |
| Nc1ncnc(Nc2cccc(F)c2)n1 [CBK017447] | 91.7% |  |
| CS(=O)(=O)Nc1nccnc1-c1ccc2c(c1)OCO2 [CBK050934] | 95.1% |  |
| O=C(C1=C(O)C(=O)N(Cc2cccnc2)C1c1cccc([N+](=O)[O-])c1)c1ccccc1 (stereo not shown) [CBK263383] | 107% |  |
| O=C1/C(=C/c2ccc(OCc3ccccc3Cl)c(Cl)c2)SC(=S)N1Cc1cccnc1 [CBK264702] | 92.4% |  |
| CC1=C(C)CC(C(=O)Nc2sc3c(c2C(=O)OC(C)C)CCCC3)C(C(=O)O)C1 (stereo not shown) [CBK265428] | 87% |  |
| COc1ccc(/C=N/NC(=O)CCn2c3ccccc3c3ccccc32)cc1O [CBK262343] | 46% |  |
| Cc1cn2c3c(=O)n(C)c(=O)n(C)c3nc2n1CCN1CCOCC1 [CBK270139] | 91.7% |  |
| CCCc1nn(CC(=O)OC)c(=O)c2cc3ccsc3n12 [CBK284144] | 98.7% |  |
| O=C(O)CCn1cc(C=C2C(=O)NC(=S)NC2=O)c(-c2cc3ccccc3oc2=O)n1 [CBK265293] |  | 91.8% |
| Clc1ccccc1OCCNC1CCc2[nH]c3ccccc3c2C1 (stereo not shown) [CBK107790] | 107% |  |
| Cc1nccn1CCNC(=O)c1cc(C2CCCCC2)no1 [CBK283295] | 89.6% |  |
| CC(=O)Nc1nc(OCC(F)(F)F)cnc1-c1ccc2c(c1)OCO2 [CBK145427] | 91.8% |  |
| CC(=O)N1CCN(C(=O)C[C@@H]2C[C@@H](C(C)C)[C@H](CC#N)C=C2C)CC1 [CBK289214] | 103% |  |
| Cc1ccc(S(=O)(=O)NC2=NCN(CCOC(=O)c3ccc([N+](=O)[O-])cc3)CN2)cc1 [CBK265235] | 92.8% |  |
| COc1cc(/C=C2/S/C(=N\c3ccccc3)NC2=O)ccc1OCc1ccccc1[N+](=O)[O-] [CBK262165] | 88.4% |  |
| O=C(CSc1nnnn1C1CC2CCC1C2)Nc1ccnc2ccccc12 (stereo not shown) [CBK267901] | 89.4% |  |
